Source: patent US4545932A, “Glucosaminyl muramyl peptide derivatives” (Dainippon Pharmaceutical Co., Ltd., priority 1982, dated 1985)

Tests used:
Assay type in all cases: in vivo
various microorganisms = test: Antiinfectious effect in mice; details: summary of Table 2; mice
Excerpt: (§1) Std-ddY male mice weighing about 23 g (each group: 8 mice) were used. Test compounds dissolved in a physiological saline solution were each intravenously administered to mice once a day 1, 2 and 3 days before the infection. Twenty-four hours after the final administration of test compounds, the mice were infected with various microorganisms suspended in saline (in case of Staphylococcus aureus and Candida albicans) or in Trypto-Soy Broth (manufactured by Eiken Chemical Co., Ltd., Japan) (in case of Pseudomonas aeruginosa and Escherichia coli) under the conditions as shown in Table 1. When the experiment was repeated twice or more, the data were pooled.
Besides, as to the compounds of Examples 8, 18, 36, 37 and 45 (derivatives of GMP3 -A), similar experiments were done.

Acute toxicity in mice = details: mortality for 14 days
Description: Male and female ICR mice aged about 6 weeks (each group: 8 mice) were used. The compound of Example 15 was dissolved in distilled water and administered to mice. Mortality was checked for 14 days and LD50 was calculated by probit method.

Pyrogenicity in rabbits = details: for Pyrogenicity in rabbits: injected into ear vein, three rabbits per group
Description: Rabbits (each group: three rabbits) were used. Test compounds dissolved in a physiological saline solution were each injected into ear vein of rabbits. The difference between maximum body temperature within three hours after the injection of test compound and the body temperature before the injection was regarded as rise in body temperature. The degree of pyrogenicity was evaluated according to the following criterion: […]

Candida albicans 3170 = test: Prophylactic effect on experimental infection, Candida albicans; details: Std-ddY male mice, 7 days after infection
Excerpt: as §1
3170 fungal sus- infection
(§2) ^a Test compounds were intravenously administered once a day 1, 2 and
(§3) 3 days before infection.
(§4) ^b Figures represent (number of survivals)/(number of animals tested)
(§5) and figures in parenthesis represent percent survival.

Escherichia coli P-5101 = test: Prophylactic effect on experimental infection, Escherichia coli; details: Std-ddY male mice, 7 days after infection
Excerpt: as §1, §2, §3, §4, §5

[1] = tested on: Staphylococcus aureus No. 50774; test: Prophylactic effect on experimental infection, Staphylococcus aureus; details: Std-ddY male mice, 14 days after infection
Excerpt: as §1, §2, §3, §4, §5

[2] = tested on: Pseudomonas aeruginosa No. 12; test: Prophylactic effect on experimental infection, Pseudomonas aeruginosa; details: Std-ddY male mice, 7 days after infection
Excerpt: as §1, §2, §3, §4, §5

[3] = Dose 0.8 mg/kg i.v. once a day 1, 2 and 3 days before infection
[4] = Dose 3.1 mg/kg i.v. once a day 1, 2 and 3 days before infection
[5] = Dose 12.5 mg/kg i.v. once a day 1, 2 and 3 days before infection
[6] = Dose 50 mg/kg i.v. once a day 1, 2 and 3 days before infection
[7] = Dose 0.05 mg/kg i.v. once a day 1, 2 and 3 days before infection
[8] = Dose 0.2 mg/kg i.v. once a day 1, 2 and 3 days before infection
[9] = Dose 0.125 mg/kg i.v. once a day 1, 2 and 3 days before infection
[10] = Dose 0.0125 mg/kg i.v. once a day 1, 2 and 3 days before infection

For `CCCCCCCCCCCCCCCCCC(=O)NC(CCCC(NC(=O)CCC(NC(=O)C(C)NC(=O)C(C)OC1C(NC(C)=O)C(O)OC(CO)C1OC1OC(CO)C(O)C(O)C1NC(C)=O)C(N)=O)C(=O)NC(C)C(=O)[O-])C(N)=O.[Na+]` [Example 15, sodium β-N-acetylglucosaminyl(1→4)-N-acetylmuramyl-L-alanyl-D-isoglutaminyl-(L)-stearoyl-(D)-meso-2,6-diaminopimelic acid-(D)-amide(L)-D-alanate], which “antiinfectious effect compared with GMP4 -A” value (various microorganisms) is on record?
Its value is “more potent antiinfectious effect”.

And the LD50 (Acute toxicity in mice; i.p., female ICR mice)?
The LD50 was > 600 mg/kg.

What about the LD50 (Acute toxicity in mice; i.p., male ICR mice) of the same compound?
The LD50 was > 600 mg/kg.

What about the LD50 (Acute toxicity in mice; i.v., female ICR mice, probit method, 95% confidence limits in parenthesis) of the same compound?
Its LD50 is 266 (237-297) mg/kg.

What about the LD50 (Acute toxicity in mice; i.v., male ICR mice, probit method, 95% confidence limits in parenthesis) of the same compound?
Its LD50 is 292 (261-328*) mg/kg.

And the LD50 (Acute toxicity in mice; p.o., female ICR mice)?
The LD50 was > 3000 mg/kg.

What about the LD50 (Acute toxicity in mice; p.o., male ICR mice) of the same compound?
The LD50 was > 3000 mg/kg.

What about the LD50 (Acute toxicity in mice; s.c., female ICR mice) of the same compound?
The LD50 was > 600 mg/kg.

And the LD50 (Acute toxicity in mice; s.c., male ICR mice)?
Its LD50 is > 600 mg/kg.

And the Pyrogenicity in rabbits (Pyrogenicity in rabbits; Dose 0.1 mg/rabbit)?
Its Pyrogenicity in rabbits is “- (one animal showed rise in body temperature of 0.6 °C or more)”.

And the Pyrogenicity in rabbits (Pyrogenicity in rabbits; Dose 0.3 mg/rabbit)?
The Pyrogenicity in rabbits was “- (one animal showed rise in body temperature of 0.6 °C or more)”.

And the Pyrogenicity in rabbits (Pyrogenicity in rabbits; Dose 1 mg/rabbit)?
The Pyrogenicity in rabbits was “- (one animal showed rise in body temperature of 0.6 °C or more)”.

What about the Pyrogenicity in rabbits (Pyrogenicity in rabbits; Dose 3 mg/rabbit) of the same compound?
Its Pyrogenicity in rabbits is “± (one animal showed rise in body temperature of 0.6 °C or more)”.

What about the Pyrogenicity in rabbits (Pyrogenicity in rabbits; Dose 10 mg/rabbit) of the same compound?
Its Pyrogenicity in rabbits is “+ (two or more animals showed rise in body temperature of 0.6 °C or more)”.

And the “pyrogenicity compared with GMP4 -A” value (Pyrogenicity in rabbits; summary of Table 3, rabbits)?
The value was “less pyrogenicity than GMP4 -A”.

What about the “(number of survivals)/(number of animals tested)” value (Candida albicans 3170; [3]) of the same compound?
Its value is 3/8.

And the percent survival (Candida albicans 3170; [3])?
Its percent survival is 37.5%.

And the “(number of survivals)/(number of animals tested)” value (Candida albicans 3170; [4])?
The value was 4/8.

What about the percent survival (Candida albicans 3170; [4]) of the same compound?
The percent survival was 50%.

And the “(number of survivals)/(number of animals tested)” value (Candida albicans 3170; [5])?
The value was 4/8.

What about the percent survival (Candida albicans 3170; [5]) of the same compound?
The percent survival was 50%.

What about the “(number of survivals)/(number of animals tested)” value (Candida albicans 3170; [6]) of the same compound?
Its value is 7/8.

What about the percent survival (Candida albicans 3170; [6]) of the same compound?
Its percent survival is 87.5%.

What about the “(number of survivals)/(number of animals tested)” value (Escherichia coli P-5101; [7]) of the same compound?
The value was 6/16.

And the percent survival (Escherichia coli P-5101; [7])?
The percent survival was 37.5%.

And the “(number of survivals)/(number of animals tested)” value (Escherichia coli P-5101; [8])?
Its value is 7/16.

What about the percent survival (Escherichia coli P-5101; [8]) of the same compound?
The percent survival was 43.8%.

What about the “(number of survivals)/(number of animals tested)” value (Escherichia coli P-5101; [3]) of the same compound?
Its value is 10/16.

And the percent survival (Escherichia coli P-5101; [3])?
Its percent survival is 62.5%.

What about the “(number of survivals)/(number of animals tested)” value (Escherichia coli P-5101; [4]) of the same compound?
Its value is 11/16.

What about the percent survival (Escherichia coli P-5101; [4]) of the same compound?
Its percent survival is 68.8%.

What about the “(number of survivals)/(number of animals tested)” value (Escherichia coli P-5101; [5]) of the same compound?
Its value is 11/16.

And the percent survival (Escherichia coli P-5101; [5])?
Its percent survival is 68.8%.

And the “(number of survivals)/(number of animals tested)” value (Escherichia coli P-5101; [6])?
Its value is 7/8.

What about the percent survival (Escherichia coli P-5101; [6]) of the same compound?
Its percent survival is 87.5%.

What about the “(number of survivals)/(number of animals tested)” value [1, 7] of the same compound?
Its value is 9/16.

What about the percent survival [1, 7] of the same compound?
The percent survival was 56.3%.

What about the “(number of survivals)/(number of animals tested)” value [1, 9] of the same compound?
The value was 3/16.

And the percent survival [1, 9]?
Its percent survival is 18.8%.

And the “(number of survivals)/(number of animals tested)” value [1, 8]?
Its value is 13/16.

What about the percent survival [1, 8] of the same compound?
Its percent survival is 81.3%.

And the “(number of survivals)/(number of animals tested)” value [1, 3]?
The value was 13/16.

What about the percent survival [1, 3] of the same compound?
Its percent survival is 81.3%.

What about the “(number of survivals)/(number of animals tested)” value [1, 4] of the same compound?
The value was 15/16.

What about the percent survival [1, 4] of the same compound?
The percent survival was 93.8%.

And the “(number of survivals)/(number of animals tested)” value [1, 5]?
Its value is 13/16.

And the percent survival [1, 5]?
Its percent survival is 81.3%.

And the “(number of survivals)/(number of animals tested)” value [2, 10]?
Its value is 12/32.

And the percent survival [2, 10]?
The percent survival was 37.5%.

And the “(number of survivals)/(number of animals tested)” value [2, 7]?
Its value is 14/32.

What about the percent survival [2, 7] of the same compound?
The percent survival was 43.8%.

And the “(number of survivals)/(number of animals tested)” value [2, 8]?
The value was 15/32.

And the percent survival [2, 8]?
Its percent survival is 46.9%.

What about the “(number of survivals)/(number of animals tested)” value [2, 3] of the same compound?
Its value is 14/24.

What about the percent survival [2, 3] of the same compound?
The percent survival was 58.3%.

What about the “(number of survivals)/(number of animals tested)” value [2, 4] of the same compound?
Its value is 14/16.

What about the percent survival [2, 4] of the same compound?
The percent survival was 87.5%.

What about the “(number of survivals)/(number of animals tested)” value [2, 5] of the same compound?
The value was 8/8.

And the percent survival [2, 5]?
Its percent survival is 100%.
